The results in this text go back to patent US20260092071A1, “COMPOUNDS AND COMPOSITIONS AS SMARCA2/4 DEGRADERS AND USES THEREOF” (REGENTS OF THE UNIVERSITY OF MICHIGAN, priority 2022, published 2026).

Like-named read-outs stand apart in the source and are kept apart here. Bounds are passed on as bounds.

One test deals with SMARCA4 (Homo sapiens, UniProt P51532). The test can be described thus: HiBit assay in engineered HT1080 CRISPR knock-in cell, 6 hrs (B series), SMARCA4. The format is cell-based. As to conditions: for SMARC A4 HT1080 HiBit Dmax(%) / DC50: HT1080 CRISPR knock-in cells; for DC50: read-out: SMARC A4 HT1080 HiBit DC50. The method in brief: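 Compounds were dispensed first, then HT1080 knock-in cells added and incubated for 6 hrs at 37° C. Next, detection reagent containing LgBiT and lytic substrate was added. Plates were shaken 10 min and centrifuged, and luminescence was measured.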
Sequence of SMARCA4 (P51532 whole entry): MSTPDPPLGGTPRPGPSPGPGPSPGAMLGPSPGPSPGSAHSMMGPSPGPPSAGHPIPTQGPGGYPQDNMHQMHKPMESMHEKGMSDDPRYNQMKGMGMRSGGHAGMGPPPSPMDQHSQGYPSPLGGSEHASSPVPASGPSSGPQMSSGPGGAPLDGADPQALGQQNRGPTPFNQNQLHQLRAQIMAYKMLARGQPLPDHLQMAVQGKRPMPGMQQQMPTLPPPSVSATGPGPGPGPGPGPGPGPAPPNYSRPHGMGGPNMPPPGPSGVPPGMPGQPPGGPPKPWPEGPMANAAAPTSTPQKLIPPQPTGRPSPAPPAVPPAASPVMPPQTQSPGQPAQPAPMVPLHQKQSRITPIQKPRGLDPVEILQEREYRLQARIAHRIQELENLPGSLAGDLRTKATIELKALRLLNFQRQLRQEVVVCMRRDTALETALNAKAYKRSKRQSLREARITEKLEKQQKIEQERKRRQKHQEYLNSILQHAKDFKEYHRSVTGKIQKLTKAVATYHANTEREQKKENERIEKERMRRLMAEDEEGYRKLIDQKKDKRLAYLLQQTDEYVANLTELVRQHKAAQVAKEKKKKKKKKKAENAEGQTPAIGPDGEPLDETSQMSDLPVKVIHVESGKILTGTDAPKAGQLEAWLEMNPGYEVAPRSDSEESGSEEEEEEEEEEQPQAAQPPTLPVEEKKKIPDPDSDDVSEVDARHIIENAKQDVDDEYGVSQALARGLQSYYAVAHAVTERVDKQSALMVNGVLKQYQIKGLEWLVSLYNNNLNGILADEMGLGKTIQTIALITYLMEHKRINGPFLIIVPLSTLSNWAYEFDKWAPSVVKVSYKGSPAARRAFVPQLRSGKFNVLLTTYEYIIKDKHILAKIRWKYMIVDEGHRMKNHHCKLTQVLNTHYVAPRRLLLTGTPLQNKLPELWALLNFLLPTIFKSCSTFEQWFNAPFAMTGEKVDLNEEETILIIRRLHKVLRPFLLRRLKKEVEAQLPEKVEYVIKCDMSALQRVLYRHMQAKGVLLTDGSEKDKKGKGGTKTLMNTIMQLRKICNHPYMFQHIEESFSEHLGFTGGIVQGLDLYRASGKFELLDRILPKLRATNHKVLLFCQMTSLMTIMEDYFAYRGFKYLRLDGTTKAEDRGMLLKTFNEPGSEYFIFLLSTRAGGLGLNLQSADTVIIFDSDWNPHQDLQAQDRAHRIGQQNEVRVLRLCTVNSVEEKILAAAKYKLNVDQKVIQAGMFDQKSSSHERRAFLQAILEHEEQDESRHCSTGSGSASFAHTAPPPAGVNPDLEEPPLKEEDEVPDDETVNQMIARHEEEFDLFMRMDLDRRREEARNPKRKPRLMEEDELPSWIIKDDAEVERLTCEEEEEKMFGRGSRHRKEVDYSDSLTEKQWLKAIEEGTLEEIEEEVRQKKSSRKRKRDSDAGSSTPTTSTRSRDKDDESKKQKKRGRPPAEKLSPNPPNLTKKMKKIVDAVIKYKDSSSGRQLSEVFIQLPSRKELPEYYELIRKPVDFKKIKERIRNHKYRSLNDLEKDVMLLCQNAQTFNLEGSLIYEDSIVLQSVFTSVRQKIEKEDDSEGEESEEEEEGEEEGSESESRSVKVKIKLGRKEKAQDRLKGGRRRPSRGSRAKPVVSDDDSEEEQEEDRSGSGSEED

The target in a further test is SMARCA2 (Homo sapiens, UniProt P51531). The test can be described thus: HiBit assay in engineered HT1080 CRISPR knock-in cell, 6 hrs (B series), SMARCA2. The format is cell-based. As to conditions: 6 hrs incubation; for SMARC A2 HT1080 HiBit Dmax (%) / DC50: HT1080 CRISPR knock-in cells; for DC50: read-out: SMARC A2 HT1080 HiBit DC50; for Dmax: HT-1080, HT1080 CRISPR knock-in cells, read-out: SMARC A2 HT1080 HiBit Dmax (%). The method in brief: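 Remaining SMARCA2 protein measured as HiBiT luminescence after cell lysis with LgBiT plus lytic substrate. Engineered HT1080 knock-in cells (2000/well) were first treated 6 h at 37 °C with compound at a final 0.1% DMSO.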
Sequence of SMARCA2 (P51531 whole entry): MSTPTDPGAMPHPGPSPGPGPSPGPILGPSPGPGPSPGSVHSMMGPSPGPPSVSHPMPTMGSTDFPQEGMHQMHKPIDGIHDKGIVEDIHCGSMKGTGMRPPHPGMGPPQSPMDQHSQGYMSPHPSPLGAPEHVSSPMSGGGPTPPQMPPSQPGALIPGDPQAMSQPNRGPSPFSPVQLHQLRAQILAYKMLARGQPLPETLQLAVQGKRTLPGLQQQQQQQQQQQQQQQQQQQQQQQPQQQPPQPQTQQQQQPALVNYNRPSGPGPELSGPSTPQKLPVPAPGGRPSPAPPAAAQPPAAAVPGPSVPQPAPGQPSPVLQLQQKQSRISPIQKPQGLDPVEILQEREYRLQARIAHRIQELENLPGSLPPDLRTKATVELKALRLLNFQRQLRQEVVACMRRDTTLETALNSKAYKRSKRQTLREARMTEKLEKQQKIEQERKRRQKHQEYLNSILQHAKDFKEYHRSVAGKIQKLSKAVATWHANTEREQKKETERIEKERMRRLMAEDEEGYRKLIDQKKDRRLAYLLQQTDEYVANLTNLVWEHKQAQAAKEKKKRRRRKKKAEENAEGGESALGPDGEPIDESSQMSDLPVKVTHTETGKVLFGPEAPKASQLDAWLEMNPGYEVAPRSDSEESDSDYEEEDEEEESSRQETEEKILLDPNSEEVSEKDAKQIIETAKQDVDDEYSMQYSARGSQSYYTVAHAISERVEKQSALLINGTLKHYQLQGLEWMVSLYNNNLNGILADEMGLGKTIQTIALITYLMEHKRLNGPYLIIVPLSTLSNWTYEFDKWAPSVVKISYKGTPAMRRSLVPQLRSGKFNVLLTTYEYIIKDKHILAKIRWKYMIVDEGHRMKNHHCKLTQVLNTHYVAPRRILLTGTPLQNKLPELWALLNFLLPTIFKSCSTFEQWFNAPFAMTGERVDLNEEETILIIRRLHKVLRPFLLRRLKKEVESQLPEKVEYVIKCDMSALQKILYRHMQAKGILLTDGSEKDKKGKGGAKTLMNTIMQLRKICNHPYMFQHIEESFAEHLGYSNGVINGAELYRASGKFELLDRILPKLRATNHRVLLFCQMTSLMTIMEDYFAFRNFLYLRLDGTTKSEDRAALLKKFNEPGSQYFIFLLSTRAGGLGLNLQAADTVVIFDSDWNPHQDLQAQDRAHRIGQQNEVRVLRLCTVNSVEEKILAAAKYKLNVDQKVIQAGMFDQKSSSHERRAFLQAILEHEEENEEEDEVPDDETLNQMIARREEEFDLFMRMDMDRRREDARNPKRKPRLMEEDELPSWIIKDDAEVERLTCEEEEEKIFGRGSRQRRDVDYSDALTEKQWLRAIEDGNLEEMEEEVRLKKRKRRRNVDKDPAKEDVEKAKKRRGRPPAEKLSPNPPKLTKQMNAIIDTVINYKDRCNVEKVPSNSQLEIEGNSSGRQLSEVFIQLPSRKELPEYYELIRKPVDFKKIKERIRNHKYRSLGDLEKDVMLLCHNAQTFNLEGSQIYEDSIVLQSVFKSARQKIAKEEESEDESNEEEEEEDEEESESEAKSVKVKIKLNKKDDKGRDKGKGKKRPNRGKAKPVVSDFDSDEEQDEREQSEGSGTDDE
(HiBiT is a short tag that completes a luciferase, so light tracks the accessible tagged protein.)

Where [1] appears, read: HT-1080, HT1080 CRISPR knock-in cells, 6 hrs incubation, read-out: SMARC A4 HT1080 HiBit Dmax(%).

For `Cc1ncsc1-c1ccc([C@H](C)NC(=O)[C@@H]2C[C@@H](O)CN2C(=O)[C@@H](NC(=O)C2CC(N3CCC(c4ccc5c(c4)C(C)(C)c4nc(=O)c6c(Cl)cccc6n4-5)CC3)C2)C(C)(C)C)cc1` (stereo partly drawn) [Compound B14, (2S,4R)-1-((2S)-2-(3-(4-(4-chloro-7,7-dimethyl-5-oxo-5,7-dihydroindolo[1,2-a]quinazolin-9-yl)piperidin-1-yl)cyclobutane-1-carboxamido)-3,3-dimethylbutanoyl)-4-hydroxy-N-((S)-1-(4-(4-methylthiazol-5-yl)phenyl)ethyl)pyrrolidine-2-carboxamide], on SMARCA4 (6 hrs incubation), the “SMARC A4 HT1080 HiBit Dmax(%)” value is recorded as “B (B (70-90% degradation))” and the DC50 fell in the range of 100 to 500 nM. On SMARCA2, the “SMARC A2 HT1080 HiBit Dmax (%)” value is on record as “A (A (>90% degradation))” and the DC50 was under 100 nM.
Take `Cc1cc(C(C(=O)N2C[C@H](O)C[C@H]2C(=O)N[C@@H](C)c2ccc(-c3scnc3C#CCOCCCN3CCC(c4ccc5c(c4)-n4c(nc(=O)c6c(Cl)cccc64)C5(C)C)CC3)cc2)C(C)C)on1` (stereo partly drawn) [Compound B103, (2S,4R)-N-((S)-1-(4-(4-(3-(3-(4-(4-chloro-7,7-dimethyl-5-oxo-5,7-dihydroindolo[1,2-a]quinazolin-10-yl)piperidin-1-yl)propoxy)prop-1-yn-1-yl)thiazol-5-yl)phenyl)ethyl)-4-hydroxy-1-(3-methyl-2-(3-methylisoxazol-5-yl)butanoyl)pyrrolidine-2-carboxamide]: the DC50 at SMARCA4 (6 hrs incubation) and on SMARCA2 was under 100 nM in each case. In addition, the Dmax at SMARCA4 (setting [1]) and on SMARCA2 was over 90% throughout.
For the compound `Cc1ncsc1-c1ccc([C@H](C)NC(=O)[C@@H]2C[C@@H](O)CN2C(=O)[C@H](C(C)C)n2cc([C@H]3CC[C@H](CN4CCC(c5ccc6c(c5)C(C)(C)c5nc(=O)c7c(Cl)cccc7n5-6)CC4)CC3)nn2)cc1` [Compound B78, (2S,4R)-1-((S)-2-(4-((1r,4S)-4-((4-(4-chloro-7,7-dimethyl-5-oxo-5,7-dihydroindolo[1,2-a]quinazolin-9-yl)piperidin-1-yl)methyl)cyclohexyl)-1H-1,2,3-triazol-1-yl)-3-methylbutanoyl)-4-hydroxy-N—((S)-1-(4-(4-methylthiazol-5-yl)phenyl)ethyl)pyrrolidine-2-carboxamide], the DC50 on SMARCA4 (6 hrs incubation) and on SMARCA2 was under 100 nM in each case. Moreover, the Dmax at SMARCA4 (HT-1080, read-out: SMARC A4 HT1080 HiBit Dmax(%), HT1080 CRISPR knock-in cells, 6 hrs incubation) is over 90%; on SMARCA2, over 90%.
As for `Cc1ncsc1-c1ccc([C@H](C)NC(=O)[C@@H]2C[C@@H](O)CN2C(=O)[C@H](C(C)C)n2cc(CN3CCC(c4ccc5c(c4)C(C)(C)c4nc(=O)c6c(Cl)cccc6n4-5)CC3)nn2)cc1` [Compound B29, (2S,4R)-1-((S)-2-(4-((4-(4-chloro-7,7-dimethyl-5-oxo-5,7-dihydroindolo[1,2-a]quinazolin-9-yl)piperidin-1-yl)methyl)-1H-1,2,3-triazol-1-yl)-3-methylbutanoyl)-4-hydroxy-N—((S)-1-(4-(4-methylthiazol-5-yl)phenyl)ethyl)pyrrolidine-2-carboxamide], the DC50 at SMARCA4 (6 hrs incubation) and at SMARCA2 was under 100 nM throughout. Besides, the Dmax on SMARCA4 (setting [1]) and at SMARCA2 was over 90% in each case.
On to `Cc1ncsc1-c1ccc([C@H](C)NC(=O)[C@@H]2C[C@@H](O)CN2C(=O)[C@@H](NC(=O)CCCCn2cc(-c3ccc4c(c3)-n3c(nc(=O)c5c(Cl)cccc53)C4(C)C)cn2)C(C)(C)C)cc1` [Compound B64, (2S,4R)-1-((S)-2-(5-(4-(4-chloro-7,7-dimethyl-5-oxo-5,7-dihydroindolo[1,2-a]quinazolin-10-yl)-1H-pyrazol-1-yl)pentanamido)-3,3-dimethylbutanoyl)-4-hydroxy-N-((S)-1-(4-(4-methylthiazol-5-yl)phenyl)ethyl)pyrrolidine-2-carboxamide], for which the DC50 on SMARCA4 (6 hrs incubation) was over 1000 nM; at SMARCA2, 100 to 500 nM. The Dmax at SMARCA4 (setting [1]) and on SMARCA2 was under 50% each time.
Consider `Cc1ncsc1-c1ccc([C@H](C)NC(=O)[C@@H]2C[C@@H](O)CN2C(=O)[C@@H](NC(=O)C2CC(N3CCC(c4ccc5c(c4)C(C)(C)c4nc(=O)c6c(Cl)cccc6n4-5)CC3)C2)C(C)(C)C)cc1` (stereo partly drawn) [Compound B13, (2S,4R)-1-((2S)-2-(3-(4-(4-chloro-7,7-dimethyl-5-oxo-5,7-dihydroindolo[1,2-a]quinazolin-9-yl)piperidin-1-yl)cyclobutane-1-carboxamido)-3,3-dimethylbutanoyl)-4-hydroxy-N-((S)-1-(4-(4-methylthiazol-5-yl)phenyl)ethyl)pyrrolidine-2-carboxamide], for which the DC50 on SMARCA4 (6 hrs incubation) was 100 to 500 nM; at SMARCA2, under 100 nM. Further, the Dmax on SMARCA4 (setting [1]) is under 50%; on SMARCA2, 70 to 90%.
As for `Cc1ncsc1-c1ccc([C@H](C)NC(=O)[C@@H]2C[C@@H](O)CN2C(=O)[C@@H](n2cc(CN3CCC(c4ccc5c(c4)-n4c(nc(=O)c6c(Cl)cccc64)C5(C)C)CC3)nn2)C(C)(C)C)cc1` [Compound B69, (2S,4R)-1-((S)-2-(4-((4-(4-chloro-7,7-dimethyl-5-oxo-5,7-dihydroindolo[1,2-a]quinazolin-10-yl)piperidin-1-yl)methyl)-1H-1,2,3-triazol-1-yl)-3,3-dimethylbutanoyl)-4-hydroxy-N-((S)-1-(4-(4-methylthiazol-5-yl)phenyl)ethyl)pyrrolidine-2-carboxamide], the DC50 at SMARCA4 (6 hrs incubation) is 100 to 500 nM; on SMARCA2, under 100 nM. In addition, the Dmax at SMARCA4 (setting [1]) was under 50%; on SMARCA2, over 90%.
As for `Cc1ncsc1-c1ccc([C@H](CN2CCOCC2)NC(=O)[C@@H]2C[C@@H](O)CN2C(=O)C(c2cc(N3CCC(CN4CCC(c5ccc6c(c5)-n5c(nc(=O)c7c(Cl)cccc75)C6(C)C)CC4)CC3)no2)C(C)C)cc1` (stereo partly drawn) [Compound B115, (2S,4R)-1-(2-(3-(4-((4-(4-chloro-7,7-dimethyl-5-oxo-5,7-dihydroindolo[1,2-a]quinazolin-10-yl)piperidin-1-yl)methyl)piperidin-1-yl)isoxazol-5-yl)-3-methylbutanoyl)-4-hydroxy-N-((R)-1-(4-(4-methylthiazol-5-yl)phenyl)-2-morpholinoethyl)pyrrolidine-2-carboxamide], the DC50 at SMARCA4 (6 hrs incubation) and on SMARCA2 was under 100 nM in each case. The Dmax was 70 to 90% on SMARCA4 (setting [1]) and over 90% on SMARCA2.
Consider `Cc1cc(C(C(=O)N2C[C@H](O)C[C@H]2C(=O)N[C@@H](C)c2ccc(-c3scnc3C#CCOCCOCCN3CCC(c4ccc5c(c4)-n4c(nc(=O)c6c(Cl)cccc64)C5(C)C)CC3)cc2)C(C)C)on1` (stereo partly drawn) [Compound B104, (2S,4R)—N—((S)-1-(4-(4-(3-(2-(2-(4-(4-chloro-7,7-dimethyl-5-oxo-5,7-dihydroindolo[1,2-a]quinazolin-10-yl)piperidin-1-yl)ethoxy)ethoxy)prop-1-yn-1-yl)thiazol-5-yl)phenyl)ethyl)-4-hydroxy-1-(3-methyl-2-(3-methylisoxazol-5-yl)butanoyl)pyrrolidine-2-carboxamide], for which the DC50 on SMARCA4 (6 hrs incubation) was 100 to 500 nM; on SMARCA2 it was under 100 nM. Besides, the Dmax at SMARCA4 (setting [1]) was 70 to 90%; on SMARCA2, over 90%.
Taken in the same sequence, the figures for `Cc1ncsc1-c1ccc2c(c1)CC[C@@H]2NC(=O)[C@@H]1C[C@@H](O)CN1C(=O)[C@@H](n1cc([C@H]2CC[C@H](CN3CCC(c4ccc5c(c4)-n4c(nc(=O)c6c(Cl)cccc64)C5(C)C)CC3)CC2)nn1)C(C)(C)C` [Compound B123, (2S,4R)-1-((S)-2-(4-((1r,4S)-4-((4-(4-chloro-7,7-dimethyl-5-oxo-5,7-dihydroindolo[1,2-a]quinazolin-10-yl)piperidin-1-yl)methyl)cyclohexyl)-1H-1,2,3-triazol-1-yl)-3,3-dimethylbutanoyl)-4-hydroxy-N-((S)-5-(4-methylthiazol-5-yl)-2,3-dihydro-1H-inden-1-yl)pyrrolidine-2-carboxamide] were 100 to 500 nM, under 100 nM, under 50% and 70 to 90%.
With `Cc1ncsc1-c1ccc([C@H](C)NC(=O)[C@@H]2C[C@@H](O)CN2C(=O)[C@@H](c2cc(OC3CCC(Cn4cc(-c5ccc6c(c5)-n5c(nc(=O)c7c(Cl)cccc75)C6(C)C)cn4)CC3)no2)C(C)C)cc1` (stereo partly drawn) [Compound B96, (2S,4R)-1-((R)-2-(3-((4-((4-(4-chloro-7,7-dimethyl-5-oxo-5,7-dihydroindolo[1,2-a]quinazolin-10-yl)-1H-pyrazol-1-yl)methyl)cyclohexyl)oxy)isoxazol-5-yl)-3-methylbutanoyl)-4-hydroxy-N-((S)-1-(4-(4-methylthiazol-5-yl)phenyl)ethyl)pyrrolidine-2-carboxamide], at SMARCA4 (6 hrs incubation), the “SMARC A4 HT1080 HiBit Dmax(%)” value is given as “D (D (<50% degradation))” and the DC50 is 100 to 500 nM. In addition, on SMARCA2, the “SMARC A2 HT1080 HiBit Dmax (%)” value is “B (B (70-90% degradation))” and the DC50 was under 100 nM.
Take `Cc1nc(C)c(-c2ccc([C@H](C)NC(=O)[C@@H]3C[C@@H](O)CN3C(=O)[C@@H](c3cc(N4CCC(c5cccc6c5C(C)(C)c5nc(=O)c7c(Cl)cccc7n5-6)CC4)no3)C(C)C)cc2)s1` [Compound B167, (2S,4R)-1-(2-(3-(4-(4-chloro-7,7-dimethyl-5-oxo-5,7-dihydroindolo[1,2-a]quinazolin-8-yl)piperidin-1-yl)isoxazol-5-yl)-3-methylbutanoyl)-N-((S)-1-(4-(2,4-dimethylthiazol-5-yl)phenyl)ethyl)-4-hydroxypyrrolidine-2-carboxamide]: the DC50 at SMARCA4 (6 hrs incubation) was 100 to 500 nM; on SMARCA2, under 100 nM. Further, the figures for the Dmax on SMARCA4 (setting [1]) and at SMARCA2 were under 50% and 70 to 90%, respectively.
